Experimental data as given in patent EP1247803A2, “Indolinone compounds suitable for modulation of protein kinases” (Sugen, Inc., priority 1996, dated 1998).

Target: T1, EGFR (Homo sapiens, UniProt P00533)
T1 construct: Add 7 ug A431 cell lysate per well (EGFR source); endogenous in cells; host or cells: A431
Assay: EGFR ELISA assay (in vitro kinase activity, EGFR captured from A431 cell lysate)
Format: biochemical
Design: concentration or dose not given beside the values
Outline: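 EGFR from A431 lysate was captured on anti-EGFR antibody-coated plates and preincubated with compounds for 30 min. Autophosphorylation ran 5 min with 3 uM ATP and 5 mM MnCl2 (final), stopped with 20 mM EDTA. Phosphotyrosine was detected by anti-pTyr ELISA with ABTS/H2O2, read at 410 nm.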

T1 sequence (P00533 25-1210): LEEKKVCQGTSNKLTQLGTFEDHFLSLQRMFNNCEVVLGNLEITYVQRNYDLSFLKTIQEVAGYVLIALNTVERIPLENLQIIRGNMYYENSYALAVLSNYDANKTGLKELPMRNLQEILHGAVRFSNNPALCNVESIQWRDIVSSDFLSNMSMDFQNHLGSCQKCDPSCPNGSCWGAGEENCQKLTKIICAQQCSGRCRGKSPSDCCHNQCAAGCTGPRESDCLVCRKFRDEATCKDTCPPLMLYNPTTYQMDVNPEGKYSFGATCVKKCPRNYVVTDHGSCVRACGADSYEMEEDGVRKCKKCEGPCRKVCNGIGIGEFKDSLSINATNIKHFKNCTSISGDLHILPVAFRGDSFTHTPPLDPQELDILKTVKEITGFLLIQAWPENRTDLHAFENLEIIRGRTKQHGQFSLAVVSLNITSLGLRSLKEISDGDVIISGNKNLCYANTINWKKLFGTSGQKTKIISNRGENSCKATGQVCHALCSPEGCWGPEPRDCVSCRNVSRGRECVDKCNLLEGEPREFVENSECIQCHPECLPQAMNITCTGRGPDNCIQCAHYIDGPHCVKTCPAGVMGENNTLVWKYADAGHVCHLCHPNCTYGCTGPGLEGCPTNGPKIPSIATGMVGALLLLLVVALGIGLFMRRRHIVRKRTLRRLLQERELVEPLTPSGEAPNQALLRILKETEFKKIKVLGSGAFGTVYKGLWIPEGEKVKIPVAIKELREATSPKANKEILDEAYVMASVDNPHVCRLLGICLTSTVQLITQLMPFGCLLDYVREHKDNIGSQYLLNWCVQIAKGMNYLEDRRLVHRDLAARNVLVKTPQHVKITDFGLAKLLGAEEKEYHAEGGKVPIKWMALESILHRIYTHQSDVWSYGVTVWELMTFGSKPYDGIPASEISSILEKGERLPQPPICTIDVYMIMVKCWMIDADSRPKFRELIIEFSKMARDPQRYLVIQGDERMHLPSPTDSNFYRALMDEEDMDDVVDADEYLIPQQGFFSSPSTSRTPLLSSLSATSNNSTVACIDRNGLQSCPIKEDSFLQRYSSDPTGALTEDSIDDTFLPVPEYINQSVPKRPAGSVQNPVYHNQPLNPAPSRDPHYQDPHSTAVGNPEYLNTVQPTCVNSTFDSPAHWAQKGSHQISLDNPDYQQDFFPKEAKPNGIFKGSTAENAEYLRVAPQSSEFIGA

O=C1Nc2ccc(S(=O)(=O)N3CCOCC3)cc2C1=CC(c1cccs1)C(F)(F)F (stereo not drawn) [10732/F02]
Biochem EGFR %Inhibition: 23.1%

COc1cc(Br)c(O)c(C=C2C(=O)Nc3ccc(S(=O)(=O)Nc4ccc(C(F)(F)F)cc4)cc32)c1 [10718/E03]
Biochem EGFR %Inhibition: 50.4%

O=C1Nc2ccc(I)cc2C1=Cc1cc(Br)ccc1O [10733/B09]
Biochem EGFR %Inhibition: 21.1%

COc1cc(Br)cc(C=C2C(=O)Nc3c(Br)cc(Br)cc32)c1O [10733/A08]
Biochem EGFR %Inhibition: 19.5%

Cc1cc(C=C2C(=O)Nc3c(Br)cc(Br)cc32)cc(C)c1OCc1ccccc1 [10733/A07]
Biochem EGFR %Inhibition: 28.5%

COc1ccc(C=C2C(=O)Nc3ccc(CCCl)cc32)cc1C(C)(C)C [10732/G05]
Biochem EGFR %Inhibition: 3.8%

COc1c(I)cc(C=C2C(=O)Nc3ccc(S(=O)(=O)N4CCOCC4)cc32)cc1C(C)(C)C [10732/F11]
Biochem EGFR %Inhibition: -21.5%

COc1c([N+](=O)[O-])cc(C=C2C(=O)Nc3ccc(Br)c(C)c32)cc1C(C)(C)C [10733/C03]
Biochem EGFR %Inhibition: 14.4%

COc1c([N+](=O)[O-])cc(C=C2C(=O)Nc3c(Br)cc(Br)cc32)cc1C(C)(C)C [10733/A03]
Biochem EGFR %Inhibition: 33.6%

COc1c(C(C)(C)C)cc(C=C2C(=O)Nc3ccc(Br)c(C)c32)cc1C(C)(C)C [10733/C04]
Biochem EGFR %Inhibition: 29.0%

CC(C)(C)c1cc(C=C2C(=O)Nc3ccc(S(=O)(=O)N4CCOCC4)cc32)cc(Cl)c1OCc1ccccc1 [10732/F10]
Biochem EGFR %Inhibition: 0.8%

COc1c(Br)cc(C=C2C(=O)Nc3ccc(S(=O)(=O)N4CCOCC4)cc32)cc1C(C)(C)C [10732/F07]
Biochem EGFR %Inhibition: -12.5%

CNS(=O)(=O)c1ccc2c(c1)C(=Cc1cc(I)c(OC)c(C(C)(C)C)c1)C(=O)N2 [10732/D11]
Biochem EGFR %Inhibition: -13.4%

O=C1Nc2c(Br)cc(Br)cc2C1=Cc1cc([N+](=O)[O-])ccc1O [10733/A10]
Biochem EGFR %Inhibition: 14.2%

CC(C)(C)c1cc(C=C2C(=O)Nc3ccc(CCCl)cc32)ccc1OCc1ccccc1 [10732/G06]
Biochem EGFR %Inhibition: -12.1%

COc1c(C(C)C)cc(C=C2C(=O)Nc3ccc(S(=O)(=O)N4CCOCC4)cc32)cc1C(C)C [10732/F03]
Biochem EGFR %Inhibition: 54.1%

CNS(=O)(=O)c1ccc2c(c1)C(=Cc1ccc(O)c(OC)c1[N+](=O)[O-])C(=O)N2 [10733/D11]
Biochem EGFR %Inhibition: 33.7%

COc1ccc(C=C2C(=O)Nc3ccc(S(=O)(=O)Nc4ccc(C(F)(F)F)cc4)cc32)cc1C(C)(C)C [10732/E05]
Biochem EGFR %Inhibition: -17.0%

COc1c(Cl)cc(C=C2C(=O)Nc3ccc(S(=O)(=O)N4CCOCC4)cc32)cc1C(C)(C)C [10732/F09]
Biochem EGFR %Inhibition: -13.4%

CNS(=O)(=O)c1ccc2c(c1)C(=Cc1ccco1)C(=O)N2 [10718/D10]
Biochem EGFR %Inhibition: 12.3%

COc1cc(Br)cc(C=C2C(=O)Nc3ccc(I)cc32)c1O [10733/B08]
Biochem EGFR %Inhibition: 32.5%

CC(C)c1cc(C=C2C(=O)Nc3ccc(S(=O)(=O)Nc4ccc(C(F)(F)F)cc4)cc32)cc(C(C)C)c1Oc1ccccc1 [10732/E04]
Biochem EGFR %Inhibition: -10.6%

CNS(=O)(=O)c1ccc2c(c1)C(=Cc1cc(C)c(OC)c(C)c1)C(=O)N2 [10733/D06]
Biochem EGFR %Inhibition: 30.8%

CC(C)c1cc(C=C2C(=O)Nc3ccc(CCCl)cc32)cc(C(C)C)c1Oc1ccccc1 [10732/G04]
Biochem EGFR %Inhibition: 8.0%

Cc1cc(C=C2C(=O)Nc3ccc(I)cc32)cc(C)c1OCc1ccccc1 [10733/B07]
Biochem EGFR %Inhibition: 32.7%

CCOC(=O)c1c(C)[nH]c(C=C2C(=O)Nc3ccc(S(=O)(=O)Nc4ccc(C(F)(F)F)cc4)cc32)c1C [10718/E02]
Biochem EGFR %Inhibition: 1.0%

CNS(=O)(=O)c1ccc2c(c1)C(=Cc1cc(C(C)(C)C)c(OC)c(C(C)(C)C)c1)C(=O)N2 [10733/D04]
Biochem EGFR %Inhibition: 19.9%

CNS(=O)(=O)c1ccc2c(c1)C(=Cc1cc(I)c(OCc3ccccc3)c(C(C)(C)C)c1)C(=O)N2 [10733/D02]
Biochem EGFR %Inhibition: 12.5%

CNS(=O)(=O)c1ccc2c(c1)C(=Cc1cc(C)c(OCc3ccccc3)c(C)c1)C(=O)N2 [10733/D07]
Biochem EGFR %Inhibition: 37.4%

Cc1c(Br)ccc2c1C(=Cc1cc(I)c(OCc3ccccc3)c(C(C)(C)C)c1)C(=O)N2 [10733/C02]
Biochem EGFR %Inhibition: 31.6%

CC(C)(C)c1cc(C=C2C(=O)Nc3ccc(CCCl)cc32)cc(Br)c1OCc1ccccc1 [10732/G08]
Biochem EGFR %Inhibition: -20.4%

COc1c(Cl)cc(C=C2C(=O)Nc3ccc(CCCl)cc32)cc1C(C)(C)C [10732/G09]
Biochem EGFR %Inhibition: -34.8%

Cc1c(Br)ccc2c1C(=Cc1cc(Br)ccc1O)C(=O)N2 [10733/C09]
Biochem EGFR %Inhibition: 46.0%

Cc1c(Br)ccc2c1C(=Cc1cc([N+](=O)[O-])ccc1O)C(=O)N2 [10733/C10]
Biochem EGFR %Inhibition: 36.0%

CC(C)(C)c1cc(C=C2C(=O)Nc3ccc(S(=O)(=O)Nc4ccc(C(F)(F)F)cc4)cc32)ccc1OCc1ccccc1 [10732/E06]
Biochem EGFR %Inhibition: -11.0%

CC(C)(C)c1cc(C=C2C(=O)Nc3ccc(S(=O)(=O)N4CCOCC4)cc32)cc(Br)c1OCc1ccccc1 [10732/F08]
Biochem EGFR %Inhibition: -11.9%

CNS(=O)(=O)c1ccc2c(c1)C(=Cc1cc(Br)ccc1O)C(=O)N2 [10733/D09]
Biochem EGFR %Inhibition: 48.3%

COc1c(I)cc(C=C2C(=O)Nc3ccc(S(=O)(=O)Nc4ccc(C(F)(F)F)cc4)cc32)cc1C(C)(C)C [10732/E11]
Biochem EGFR %Inhibition: -32.2%

COc1c(C)cc(C=C2C(=O)Nc3ccc(I)cc32)cc1C [10733/B06]
Biochem EGFR %Inhibition: 43.6%

CNS(=O)(=O)c1ccc2c(c1)C(=Cc1c(C)[nH]c(C(=O)OC)c1C(=O)OC)C(=O)N2 [10718/D07]
Biochem EGFR %Inhibition: 5.6%

CC(C)(C)c1cc(C=C2C(=O)Nc3ccc(I)cc32)cc(I)c1OCc1ccccc1 [10733/B02]
Biochem EGFR %Inhibition: 31.6%

CNS(=O)(=O)c1ccc2c(c1)C(=Cc1cc(C(C)(C)C)c(OCc3ccccc3)c(C(C)(C)C)c1)C(=O)N2 [10733/D05]
Biochem EGFR %Inhibition: 10.6%

COc1c(O)ccc(C=C2C(=O)Nc3c(Br)cc(Br)cc32)c1[N+](=O)[O-] [10733/A11]
Biochem EGFR %Inhibition: 23.0%

O=C1Nc2ccc(I)cc2C1=Cc1cc([N+](=O)[O-])ccc1O [10733/B10]
Biochem EGFR %Inhibition: 11.8%

CC(C)(C)c1cc(C=C2C(=O)Nc3c(Br)cc(Br)cc32)cc(I)c1OCc1ccccc1 [10733/A02]
Biochem EGFR %Inhibition: 25.9%

O=C1Nc2ccc(CCCl)cc2C1=CC(c1cccs1)C(F)(F)F (stereo not drawn) [10732/G02]
Biochem EGFR %Inhibition: -0.7%

O=C1Nc2ccc(S(=O)(=O)Nc3ccc(C(F)(F)F)cc3)cc2C1=CC(c1cccs1)C(F)(F)F (stereo not drawn) [10732/E02]
Biochem EGFR %Inhibition: 0.8%

CC(C)(C)c1cc(C=C2C(=O)Nc3ccc(CCCl)cc32)cc(Cl)c1OCc1ccccc1 [10732/G10]
Biochem EGFR %Inhibition: -38.2%

CC(C)(C)c1cc(C=C2C(=O)Nc3ccc(S(=O)(=O)Nc4ccc(C(F)(F)F)cc4)cc32)cc(Br)c1OCc1ccccc1 [10732/E08]
Biochem EGFR %Inhibition: -21.7%

COc1c(Br)cc(C=C2C(=O)Nc3ccc(CCCl)cc32)cc1C(C)(C)C [10732/G07]
Biochem EGFR %Inhibition: -21.9%

COc1c(Cl)cc(C=C2C(=O)Nc3ccc(S(=O)(=O)Nc4ccc(C(F)(F)F)cc4)cc32)cc1C(C)(C)C [10732/E09]
Biochem EGFR %Inhibition: -7.2%
